Measurements from patent US20250326722A1 (SHANGHAI HANSOH BIOMEDICAL CO., LTD., priority 2022, published 2025).

Tests used:
[1] = Pharmacokinetic determination in mice (plasma); type: in vivo, C57BL/6J mice; details: C57 mice, PO administration, 5 mpk; for AUC(0-inf) / half-life / MRT / Cmax: male, C57BL/6J, mouse, 5 mg/kg; for AUC(0-inf): read-out: Area under the curve AUC0-∞; for half-life: read-out: Half-life t1/2 (converted); for MRT: read-out: Mean residence time MRT; for Cmax: read-out: Plasma concentration Cmax
How it was run: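 Male C57BL/6J mice (n=3 per route), fasted overnight, got 5 mg/kg PO in 10% Solutol HS15 or 1 mg/kg IV in 5% DMSO/10% Solutol HS15/85% PBS. Orbital blood was sampled at 0.083 (IV only), 0.25, 0.5, 1, 2, 4, 8 and 24 h. EDTA-K2 plasma was quantified by LC-MS/MS for PK parameters.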

[2] = biological target: PCSK9 secreted by HepG2 cells (Homo sapiens (Human), UniProt Q8NBP7); test: Effect on the concentration of PCSK9 secreted by HepG2 cells (ELISA); type: cell-based; details: 48 hours incubation, read-out: Inhibitory activity on PCSK9, IC50
[3] = system: hyperlipidemia animal model of B6-hPCSK9 transgenic mice; test: In vivo pharmacodynamics in hyperlipidemia animal model of B6-hPCSK9 transgenic mice; design: species or system B6-hPCSK9 transgenic C57 mice; details: PO administration, Day 14, high-fat feed
Method: The compounds of the present disclosure were evaluated for in vivo pharmacodynamics in a hyperlipidemia animal model of B6-hPCSK9 transgenic mice.
B6-hPCSK9 transgenic C57 mice, 6-8 weeks old, male, purchased from Jiangsu GemPharmatech Co., Ltd.
After delivery to a barrier system, the animals were given one week for acclimatization and began to feed on the high-fat feed. The body weight and feed weight were weighed once a week, and the body weight and food intake thereof were recorded.
a. The animals were grouped by a random grouping method.
c. According to the grouping results, administration with the test drug was started (mode of administration: oral administration; administration volume: 10 mL/kg; frequency of administration: once/day or single administration; administration cycle: 21 days; vehicle: 10% Solutol HS 15/90% Saline).
d. After the test drug was administered, the body weight and feed weight were weighed twice a week and blood was taken once a week.
e. The data was processed with software such as Excel. […] PCSK9 in plasma was detected by ELISA.

PCSK9 protein = PCSK9 protein (Homo sapiens (Human), UniProt Q8NBP7); test: Binding experiment: surface plasmon resonance (SPR) binding to PCSK9 protein
Description: • 1. Experimental objective: To detect the action of compounds to bind PCSK9 protein by a conventional surface plasmon resonance (SPR) method.

LDL-C = details: combined with a statin; cited from earlier work
[4] = system: LDLR level in HepG2 cells; test: Effect on the LDLR level in HepG2 cells (ELISA); type: cell-based, human; design: concentration or dose not given beside the values; details: 48 hours incubation, LDLR ELISA of lysate
Method: To detect the effect of the compounds on the LDLR protein level.
Envision (PE-Cisbio: 2105-0020), centrifuge (Eppendorf: 5810R), water purifier (THERMO: Pacific T II+Micropure), plate washer (Thermo: […] VERSA), and microplate shaker (Thermo: 88882006)
• 1) HepG2 cell strain was cultured in the complete culture medium at 37° C., 5% CO2 to 70-90% confluence. • 2) The cells were digested and resuspended in the experimental culture medium, inoculation was performed at 25,000 cells/well/200 μL in a 96-well cell culture plate, and the cells were cultured at 37° C., 5% CO2 for 20-24 hours. • 3) The culture medium was removed from the cell culture plate, and the cell culture plate was washed once by adding 200 μl of the experimental culture medium to each well. • 4) Preparation of positive control compound and compound to be tested: the positive control compound and the compound to be tested were diluted on the compound plate. • 5) The diluted compound was added to the cell culture plate at 250 μL per well and incubated at 37° C. and 5% CO2 for 48 hours. • 6) The cell culture medium was removed, the cells were washed with PBS, and 50 μL of the cell lysis buffer and the protein inhibitor were added. • 7) After centrifugation, the lysate was removed and the sample was stored for later use. • 8) Preparation of standard curve: corresponding volumes of Dilution buffer were successively added to respective standard tubes, and the standard was diluted in series by taking the corresponding volume from the original tube or the last concentration tube. • 9) Preparation of washing liquid: 10× Wash buffer was diluted into 1× with Milli-Q for later use. • 10) According to the standard curve wells and sample wells set according to a plate map, 80 μL/well of the corresponding standards and samples were added to the wells, with 2 replicate wells. A well in which no standard was added was used as a background value well. A self-adhesive seal was applied, the plate was placed on a plate shaker at room temperature, gently shaken, uniformly mixed, and incubated for 2 hours. • 11) The plate was placed on the plate washer, the washing liquid was set to 350 μL per well, and the plate was washed 4 times repeatedly. • 12) 200 μL of Human LDLR conjugate was added, a self-adhesive seal was applied, and the plate was placed on the plate shaker, well mixed uniformly, and incubated for 2 hours. • 13) The plate was placed on the plate washer, the washing liquid was set to 350 μL per well, and the plate was washed 4 times repeatedly. • 14) 200 μL/well of Substrate solution was added, and the plate was placed in the dark, applied with a self-adhesive seal, placed on the plate shaker, well mixed uniformly, and incubated for 20 minutes. • 15) 50 μL/well of Stop solution was added and mixed uniformly over 20 min. • 16) The optical density (OD) value in each well was measured in sequence at a wavelength of 450 nm by the microplate reader.
After the OD values were read by the microplate reader, the OD value of the 0-concentration standard in the standard group was subtracted from the OD values of the standards, control group, and samples to obtain the actual OD values for these wells. A standard curve was plotted with Graphpad and the concentration of the sample was calculated. If the dilution was performed during the sample detection, the calculated sample concentration was necessarily multiplied by the corresponding dilution ratio in the final calculation, which was the actual concentration of the sample. Concentration increase %=(actual concentration in control-actual concentration in sample)/actual concentration in control*100.

Sequence of PCSK9 protein (Q8NBP7 153-692): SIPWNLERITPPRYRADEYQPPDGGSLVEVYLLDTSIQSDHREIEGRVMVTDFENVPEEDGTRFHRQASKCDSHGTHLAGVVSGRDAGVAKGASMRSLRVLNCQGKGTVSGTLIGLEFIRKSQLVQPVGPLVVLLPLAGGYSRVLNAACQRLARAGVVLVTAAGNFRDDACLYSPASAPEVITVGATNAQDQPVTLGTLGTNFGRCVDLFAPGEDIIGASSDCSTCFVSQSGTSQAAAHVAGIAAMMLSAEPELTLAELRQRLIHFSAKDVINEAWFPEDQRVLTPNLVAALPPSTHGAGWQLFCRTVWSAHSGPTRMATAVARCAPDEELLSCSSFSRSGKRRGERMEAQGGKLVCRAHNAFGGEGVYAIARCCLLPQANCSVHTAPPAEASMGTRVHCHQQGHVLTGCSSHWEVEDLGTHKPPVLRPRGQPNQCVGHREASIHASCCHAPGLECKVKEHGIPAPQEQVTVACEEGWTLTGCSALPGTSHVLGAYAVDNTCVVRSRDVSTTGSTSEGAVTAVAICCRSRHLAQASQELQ
Sequence of PCSK9 secreted by HepG2 cells (Q8NBP7 153-692): as above
Sequence of PCSK9 secreted by HepG2 cells (Q8NBP7 31-152 partner): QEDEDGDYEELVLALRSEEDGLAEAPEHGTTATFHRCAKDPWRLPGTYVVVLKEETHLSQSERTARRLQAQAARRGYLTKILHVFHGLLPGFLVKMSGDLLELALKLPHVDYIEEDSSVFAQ

Time to peak tmax [1] | AUC(0-inf) [1] | half-life [1] | MRT [1] | Cmax [1] | IC50 [2] | Kd (PCSK9 protein) | Structure (SMILES) | LDL-C change, Day 14 ([3]; 10 mpk) | LDL-C change, Day 14 ([3]; 5 mpk) | LDL-C reduction (LDL-C) | LDLR expression level [4] | LDL-C change, Day 14 ([3]; 3 mpk) | LDL-C change, Day 14 ([3]; 6 mpk)
0.5 h | 9640 ng·h/mL | 3.9 h | 1.5 h | 4880 ng/mL | 7400 nM |  | O=C1c2ncccc2CN1c1ccc(N[C@H]2CC[C@H](Nc3nc4cc(F)ccn4n3)C2)nc1 [Example 129, 6-(6-(((1S,3S)-3-((7-fluoro-[1,2,4]triazolo[1,5-a]pyridin-2-yl)amino)cyclopentyl)amino)pyridin-3-yl)-5,6-dihydro-7H-pyrrolo[3,4-b]pyridin-7-one] |  | −21.98% |  |  |  | 
2 h | 76600 ng·h/mL | 4.1 h | 5.8 h | 9360 ng/mL | 2200 nM |  | O=C1c2ncccc2CN1c1ccc(N[C@H]2CC[C@H](Nc3ncc(C(F)(F)F)cn3)C2)nc1 [Example 134, 6-(6-(((1S,3S)-3-((5-(trifluoromethyl)pyrimidin-2-yl)amino)cyclopentyl)amino)-3-yl)-5,6-dihydro-7H-pyrrolo[3,4-b]pyridin-7-one] |  | −60.65% |  |  |  | 
0.25 h | 8080 ng·h/mL | 4.3 h | 2.1 h | 4720 ng/mL |  | 1.5 nM | O=C1c2cccnc2CN1c1ccc(N[C@H]2CC[C@H](Nc3ncc(OC(F)F)cn3)C2)nc1 [Example 77, 6-(6-(((1S,3S)-3-((5-(difluoromethoxy)pyrimidin-2-yl)amino)cyclopentyl)amino)pyridin-3-yl)-6,7-dihydro-5H-pyrrolo[3,4-b]pyridin-5-one] |  |  |  | 117% |  | 
1 h | 41500 ng·h/mL | 5.9 h | 4.8 h | 9960 ng/mL | 22000 nM |  | O=C1c2ncccc2CN1c1ccc(N[C@H]2CC[C@H](Nc3ncc(OC(F)F)cn3)C2)nc1 [Example 57, 6-(6-(((1S,3S)-3-((5-(difluoromethoxy)pyrimidin-2-yl)amino)cyclopentyl)amino)pyridin-3-yl)-5,6-dihydro-7H-pyrrolo[3,4-b]pyridin-7-one] |  |  |  |  | −46.22% | 

More lines, now with the values behind:

Structure (SMILES) | Time to peak tmax [1] | AUC(0-inf) [1] | half-life [1] | MRT [1] | Cmax [1] | IC50 [2] | Kd (PCSK9 protein) | LDL-C change, Day 14 ([3]; 10 mpk) | LDL-C change, Day 14 ([3]; 5 mpk) | LDL-C reduction (LDL-C) | LDLR expression level [4] | LDL-C change, Day 14 ([3]; 3 mpk) | LDL-C change, Day 14 ([3]; 6 mpk)
O=C1c2cccc(C(F)(F)F)c2CN1c1ccc(N[C@H]2CC[C@H](Nc3ncc(C(F)(F)F)nn3)C2)nc1 [Example 158, 4-(Trifluoromethyl)-2-(6-(((1S,3S)-3-((6-(trifluoromethyl)-1,2,4-triazin-3-yl)amino)cyclopentyl)amino)pyridin-3-yl) isoindolin-1-one] | 4 h | 22400 ng·h/mL | 16.2 h | 19.5 h | 2320 ng/mL | 1900 nM |  | −28.97% |  |  |  |  | 
Cc1nccc2c1CN(c1ccc(N[C@H]3CC[C@H](Nc4nc5cc(F)ccn5n4)C3)nc1)C2=O [Example 149, 2-(6-(((1S,3S)-3-((7-fluoro-[1,2,4]triazolo[1,5-a]pyridin-2-yl)amino)cyclopentyl)amino)pyridin-3-yl)-4-methyl-2,3-dihydro-1H-pyrrolo[3,4-c]pyridin-1-one] | 0.5 h | 24200 ng·h/mL | 4.8 h | 2.4 h | 12300 ng/mL | 15500 nM | 1.4 nM | −41.65% |  |  |  |  | 
O=C1[C@H](CC[C@H](O)c2ccc(F)cc2)[C@@H](c2ccc(O)cc2)N1c1ccc(F)cc1 [Ezetimibe] |  |  |  |  |  |  |  |  |  | 15-20% |  |  | 
O=C1c2ncccc2CN1c1ccc(N[C@H]2CC[C@H](Nc3nc4cc(C(F)(F)F)ccn4n3)C2)nc1 [Example 143, 6-(6-(((1S,3S)-3-((7-(trifluoromethyl)-[1,2,4]triazolo[1,5-a]pyridin-2-yl)amino)cyclopentyl)amino)pyridin-3-yl)-5,6-dihydro-7H-pyrrolo[3,4-b]pyridin-7-one] | 1 h | 11600 ng·h/mL | 3.9 h | 2.2 h | 3870 ng/mL |  | 1.2 nM | −34.97% |  |  |  |  | 
O=c1ccccn1-c1ccc(N[C@H]2CC[C@H](Nc3ncc4cccn4n3)C2)nc1 [Example 20, 6′-(((1S,3S)-3-(pyrrolo[2,1-f][1,2,4]triazin-2-ylamino)cyclopentyl)amino)-2H-[1,3′-bipyridinyl]-2-one] |  |  |  |  |  | 14000 nM | 2.4 nM |  |  |  | 302% |  | 
Cc1cc2c(cn1)CN(c1ccc(N[C@H]3CC[C@H](Nc4nc5cc(F)ccn5n4)C3)nc1)C2=O [Example 147, 2-(6-(((1S,3S)-3-((7-fluoro-[1,2,4]triazolo[1,5-a]pyridin-2-yl)amino)cyclopentyl)amino)pyridin-3-yl)-6-methyl-2,3-dihydro-1H-pyrrolo[3,4-c]pyridin-1-one] | 2 h | 52000 ng·h/mL | 4.4 h | 4.8 h | 8230 ng/mL | 24100 nM |  |  |  |  |  | −23.20% | 
Cc1cc2c(cn1)CN(c1ccc(N[C@H]3CC[C@H](Nc4nc5cc(C(F)(F)F)ccn5n4)C3)nc1)C2=O [Example 156, 6-Methyl-2-(6-(((1S,3S)-3-((7-(trifluoromethyl)-[1,2,4]triazolo[1,5-a]pyridin-2-yl)amino)cyclopentyl)amino)pyridin-3-yl)-2,3-dihydro-1H-pyrrolo[3,4-c]pyridin-1-one] | 1 h | 19700 ng·h/mL | 3.6 h | 3.2 h | 5010 ng/mL | 2100 nM | 4.8 nM | −25.97% |  |  |  |  | 
O=c1ccccn1-c1ccc(N[C@H]2CC[C@H](Nc3nc4cc(F)ccn4n3)C2)nc1 [Example 27, 6′-((3-(((1S,3S)-7-fluoro-[1,2,4]triazolo[1,5-a]pyridin-2-yl)amino)cyclopentyl)amino)-2H-[1,3′-bipyridinyl]-2-one] |  |  |  |  |  |  | 2.6 nM |  |  |  |  |  | −31.52%
